Data taken from patent publication US20250236622A1, “BICYCLIC COMPOUNDS AS INHIBITORS OF WRN” (Incyte Corporation, priority 2023, published 2025).

Legend:
[1] = biological target: T1, WRN (Homo sapiens, UniProt Q14191); assay: WRN Helicase Activity Assay (fluorescence DNA unwinding); type: biochemical; conditions: 1-hr pre-incubation with enzyme; 100 μM ATP, 25 nM forked dsDNA, 1 nM WRN; geometric mean of at least 2 replicates
T1 construct: A His-tagged construct of WRN (AA S2-S1235) was produced and used for the ATPase assay; made in house; host or cells: Sf9 insect cells (baculovirus, pFastBac1)
T1 sequence (Q14191 2-1235): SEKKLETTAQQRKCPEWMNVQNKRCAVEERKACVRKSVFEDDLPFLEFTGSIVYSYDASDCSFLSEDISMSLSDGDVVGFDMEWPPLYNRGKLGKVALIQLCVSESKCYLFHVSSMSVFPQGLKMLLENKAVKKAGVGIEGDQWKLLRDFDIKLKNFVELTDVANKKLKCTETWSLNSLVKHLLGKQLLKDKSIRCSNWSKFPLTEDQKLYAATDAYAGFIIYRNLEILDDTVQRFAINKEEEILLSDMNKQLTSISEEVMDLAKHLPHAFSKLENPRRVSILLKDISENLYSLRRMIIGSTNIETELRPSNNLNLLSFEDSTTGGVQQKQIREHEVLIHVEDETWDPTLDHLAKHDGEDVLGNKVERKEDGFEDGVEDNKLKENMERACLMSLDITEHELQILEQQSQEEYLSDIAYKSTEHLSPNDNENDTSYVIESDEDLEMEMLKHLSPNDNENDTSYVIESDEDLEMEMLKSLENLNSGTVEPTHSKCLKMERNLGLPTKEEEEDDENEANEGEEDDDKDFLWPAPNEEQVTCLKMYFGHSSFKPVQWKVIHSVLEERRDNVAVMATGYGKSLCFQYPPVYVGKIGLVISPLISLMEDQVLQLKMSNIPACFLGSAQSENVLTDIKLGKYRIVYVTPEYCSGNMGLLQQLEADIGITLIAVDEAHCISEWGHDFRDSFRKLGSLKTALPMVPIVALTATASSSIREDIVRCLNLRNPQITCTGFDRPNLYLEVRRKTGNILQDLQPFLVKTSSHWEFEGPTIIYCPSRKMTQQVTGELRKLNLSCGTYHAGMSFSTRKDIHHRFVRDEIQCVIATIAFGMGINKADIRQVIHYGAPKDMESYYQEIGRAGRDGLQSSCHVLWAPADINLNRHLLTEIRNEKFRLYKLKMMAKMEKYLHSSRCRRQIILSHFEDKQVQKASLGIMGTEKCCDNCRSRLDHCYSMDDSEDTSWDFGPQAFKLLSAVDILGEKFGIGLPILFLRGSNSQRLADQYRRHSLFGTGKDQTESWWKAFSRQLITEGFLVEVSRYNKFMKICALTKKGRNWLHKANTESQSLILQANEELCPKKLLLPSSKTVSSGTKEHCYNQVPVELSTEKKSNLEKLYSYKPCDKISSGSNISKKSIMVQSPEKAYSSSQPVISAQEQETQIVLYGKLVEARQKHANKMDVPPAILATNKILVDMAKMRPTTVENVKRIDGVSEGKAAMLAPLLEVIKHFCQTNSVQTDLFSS
Protocol: Compounds of the examples were tested for WRN helicase activity. DNA encoding the target protein, 6×HIS-TEV-WRN-517-945, was produced, cloned and transfected as detailed in Example D. To determine the inhibitory properties of the compounds, a 384 wells plate-based Helicase assay was set up to measure the extent of DNA unwinding (Helicase) activity of WRN. The WRN Helicase assay was designed to measure increase in fluorescence signal using a fluorescence based, donor-quencher paired forked dsDNA oligomer substrate (custom synthesis from Sigma-Aldrich) prepared by annealing equal amounts of oligo GPat-1 ([BHQ2][…]) and oligo GPat-2 ([…][TAM]). Continuous measurement of fluorescent signal was used to optimize the buffer conditions, concentration of enzyme (WRN), concentration of substrates (ATP & dsDNA), and the linearity of the Helicase reaction. All solutions were prepared in the following assay buffer: 50 mM Tris-HCl, pH-7.5, 2 mM MgCl2, 50 mM NaCl, 1 mM EGTA, 0.01% P-20, 0.05% BSA, and 2 mM DTT prepared with nuclease free water.
A serial dilution (1:3 scheme) of the compounds was prepared in neat DMSO and 100 nL of the compounds was dispensed in the Greiner black low volume (Greiner #784076) 384 wells assay plate. An 1-hr pre-incubation of the compounds with enzyme was included. A His-tagged construct of WRN (AA S2-S1235) was produced and used for the ATPase assay. Maximum inhibition control wells were set up with the addition of only assay buffer, and no inhibition control wells were set up with neat DMSO without test compounds. The reaction was initiated by addition of 5 μL substrate mix (200 μM ultrapure ATP, and 50 nM dsDNA prepared in assay buffer) and incubated at 25° C. for 35 min. A typical Helicase reaction consists of 25 nM forked dsDNA, 100 μM ATP, and 1 nM WRN prepared in assay buffer. The WRN Helicase reaction was quenched by the addition of 5 μL ‘STOP’ solution containing 100 mM EDTA (final EDTA concentration 33.33 mM) prepared in assay buffer. The plates were read on BMG PHERAstar FSX using 540/590 module to measure an increase of fluorescence. Data analysis was carried out using the Genedata software following % of control normalization. Fitting parameters include dose response IC50, Hill slope (n), maximum inhibition (S∞), and minimum inhibition (S0). The reported IC50 values for compounds in this invention are the geometric means of at least 2 independent replicates.

[2] = biological target: T1, WRN; assay: WRN ATPase Activity Assay (ADP-Glo); type: biochemical; conditions: 1-hr pre-incubation with enzyme; 100 μM ATP, 25 nM forked dsDNA, 1 nM WRN; geometric mean of at least 2 replicates
Protocol: Compounds of the Examples were tested for WRN ATPase activity. WRN ATPase activity catalyzes ATP hydrolysis to produce ADP and phosphate. DNA encoding the target protein, 6×HIS-TEV-WRN-517-945, was produced, cloned and transfected as detailed in Example D. The amount of ADP produced was measured using ADP-Glo™ Kinase Assay kit from Promega Corporation in a Greiner white regular volume 384 wells assay plate (Greiner #781075). Data was normalized to a standard curve generated using various ADP concentrations and the corresponding luminescent signal intensities at each concentration.
The assay conditions were optimized for enzyme concentration (WRN), substrate concentrations (ATP & dsDNA), and the linearity of the ATPase reaction, in the following assay buffer: 50 mM Tris-HCl, pH-7.5, 2 mM MgCl2, 50 mM NaCl, 1 mM EGTA, 0.01% P-20, 0.05% BSA, and 2 mM DTT prepared with nuclease free water.
A serial dilution (1:3 scheme) of the compounds were prepared in neat DMSO, with 100 nL of the compounds dispensed in the 384 wells assay plate. An 1-hr pre-incubation of the compounds with enzyme was included. A His-tagged construct of WRN (AA S2-S1235) was produced and used for the ATPase assay. Maximum inhibition control wells were set up with the addition of only assay buffer, and no inhibition control wells were set up with neat DMSO without test compounds. The reaction was initiated by addition of 5 μL substrate mix (200 μM ultrapure ATP, and 50 nM dsDNA prepared in assay buffer) and incubated at 25° C. for 35 min. A forked dsDNA oligomer substrate was prepared by annealing equal amounts of oligo GPat-1 ([BHQ2][…]) and oligo GPat-2 ([…][TAM]) and was used as dsDNA substrate for WRN ATPase assay. A typical ATPase reaction consists of 25 nM forked dsDNA, 100 μM ATP, and 1 nM WRN prepared in assay buffer. The WRN ATPase reaction was stopped by the addition of 5 μL of ADP-Glo Reagent from ADP-Glo™ Kinase Assay kit and incubated for 40 min to deplete the unreacted ATP. Afterwards, 5 μL of Kinase Detection Reagent from the ADP-Glo™ Kinase Assay kit was added and incubated for 1 hr for the development of luminescence signal.
Luminesce signals were measured on BMG PHERAstar FSX using luminescence protocol. Data analysis was carried out using Genedata software following % of control normalization. Fitting parameters include dose response IC50, Hill slope (n), maximum inhibition (S∞), and minimum inhibition (S0). The reported IC50 values for compounds in this invention are the geometric means of at least 2 independent replicates.

Row | Structure (SMILES) | IC50 [1] | IC50 [2]
1 | C=CC(=O)Nc1ccccc1-c1c(CC)nc2n(CC(=O)Nc3ccc(C(F)(F)F)cc3)c(-c3cccs3)nn2c1=O [Example 5, N-(2-(5-ethyl-7-oxo-3-(2-oxo-2-((4-(trifluoromethyl)phenyl)amino)ethyl)-2-(thiophen-2-yl)-3,7-dihydro-[1,2,4]triazolo[1,5-a]pyrimidin-6-yl)phenyl)acrylamide] | 100 to 500 nM | 100 to 500 nM
2 | C=CC(=O)Nc1ccccc1-c1c(CC)nc2n(CC(=O)Nc3ccc(C(F)(F)F)cc3)c(C3CCNCC3)nn2c1=O [Example 6, N-(2-(5-Ethyl-7-oxo-3-(2-oxo-2-((4-(trifluoromethyl)phenyl)amino)ethyl)-2-(piperidin-4-yl)-3,7-dihydro-[1,2,4]triazolo[1,5-a]pyrimidin-6-yl)phenyl)acrylamide] | 1000 to 5000 nM | 1000 to 5000 nM
3 | C=CC(=O)Nc1ccccc1-c1c(CC)nc2n(CC(=O)Nc3ccc(C(F)(F)F)cc3)c(C)nn2c1=O [Example 1, N-(2-(5-Ethyl-2-methyl-7-oxo-3-(2-oxo-2-((4-(trifluoromethyl)phenyl)amino)ethyl)-3,7-dihydro-[1,2,4]triazolo[1,5-a]pyrimidin-6-yl)phenyl)acrylamide] | < 100 nM | < 100 nM

Results, then the compound that gave them:

Row | IC50 [1] | IC50 [2] | Structure (SMILES)
4 | < 100 nM | < 100 nM | C=CC(=O)Nc1ccccc1-c1c(CC)nc2n(CC(=O)Nc3ccc(C(F)(F)F)cc3)c(C3CC3)nn2c1=O [Example 2, N-(2-(2-Cyclopropyl-5-ethyl-7-oxo-3-(2-oxo-2-((4-(trifluoromethyl)phenyl)amino)ethyl)-3,7-dihydro-[1,2,4]triazolo[1,5-a]pyrimidin-6-yl)phenyl)acrylamide]
5 | 5000 to 20000 nM | 1000 to 5000 nM | C=CC(=O)Nc1ccccc1-c1c(CC)nc2n(CC(=O)Nc3ccc(C(F)(F)F)cc3)c(C3CCCCC3)nn2c1=O [Example 4, N-(2-(2-Cyclohexyl-5-ethyl-7-oxo-3-(2-oxo-2-((4-(trifluoromethyl)phenyl)amino)ethyl)-3,7-dihydro-[1,2,4]triazolo[1,5-a]pyrimidin-6-yl)phenyl)acrylamide]
6 | 100 to 500 nM | 100 to 500 nM | C=CC(=O)Nc1ccccc1-c1c(CC)nc2n(CC(=O)Nc3ccc(C(F)(F)F)cc3)c(C3CCC3)nn2c1=O [Example 3, N-(2-(2-Cyclobutyl-5-ethyl-7-oxo-3-(2-oxo-2-((4-(trifluoromethyl)phenyl)amino)ethyl)-3,7-dihydro-[1,2,4]triazolo[1,5-a]pyrimidin-6-yl)phenyl)acrylamide]
